Experimental data from patent US20250011869A1, “TLR3 INHIBITORS FOR USE IN THE TREATMENT OF DISEASES ASSOCIATED WITH CARDIOVASCULAR CALCIFICATION” (priority 2021, published 2025).
“Also recorded” adds a separate entry of the source. Values belong to the molecule of their own block, whether it stands above or below them.

Tests used:
VICs = assay: Calcification assay of VICs in osteogenic medium (Alizarin Red S, alkaline phosphatase); type: cell-based, human; conditions: VICs in osteoblastic medium; for calcification / production of calcific nodules: Poly(I:C) 20 μg/mL or inhibitor 26 μM, Alizarin Red S
Procedure: For functional evaluation of osteoblastic activity, VICs were subjected to a calcification assay. Cells were cultured in osteogenic medium including 10 mmol/L beta-glycerophosphate, 10 nmol/L vitamin D3, and 10 nmol/L dexamethasone as described previously^4. The medium was changed every three days. Subsequently, supernatant was analyzed for alkaline phosphatase activity using the commercially available alkaline phosphatase assay kit (Abcam, Cambridge, UK). After careful rinsing with PBS, cells were fixed with 4% paraformaldehyde, washed with distilled water and Alizarin Red S staining solution (Alfa Aesar, Haverhill, MA) was added upon the fixed cells for 20 minutes at room temperature (RT). Imaging of the staining was performed using a Zeiss Axioplan 2 microscope (Zeiss, Oberkochen, Germany). Images were processed using Adobe Photoshop CS5.1 for Mac (Adobe Systems Inc., San Jose, CA, USA) and analyzed with ImageJ software (National Institutes of Health, Bethesda, […]).

zebrafish (Danio rerio) = assay: Zebrafish VitD3-induced calcification model; type: in vivo; conditions: larvae from 5 dpf, 5 days; for VitD3-induced calcification on co-incubation: VitD3 200 ng/mL with TLR3-inhibitor 5 μg/mL, opercle and all bone structures
Procedure: Fish were maintained and raised under standard husbandry conditions. VitD3 treatments were performed as previously described^26 with some minor modifications. Briefly: 15 animals (5 dpf) were pooled per 6-well pate and incubated for 5 days at 28° C. in 4 ml E3 medium containing 0.1% DMSO and different compounds as indicated. Larvae were fixed in 4% PFA overnight. Final concentration of compounds was 5 μg/mL for TLR3-inhibitor (Merck, Darmstadt, Germany) and 200 ng/mL VitD3 (Sigma, St. Louis, MO). Dilutions were generated from stock solutions with 10 mg/mL TLR3-INH and 200 mg/mL VitD3 in DMSO. Solutions containing VitD3 were changed every day. All experiments were done in duplicates. Alizarin Red stains were performed as described previously^27 with some minor modifications. After staining larvae were transferred to 100% glycerol and imaged. Area measurements were carried out as described^28.
Whole area: For each larva three independent ventral view images were taken with a Leica MZ16FA using standardized stereomicroscope settings. After each image the larvae were embedded anew. Data quantification was done with ImageJ. Standard white balance was used for background subtraction. Image were converted to greyscale (8 bit) and threshold was set to 225. The stained area excluding the otoliths was measured.
Opercula area: Larvae were imaged laterally from both sides using a standard microscope setting. Area measurements were performed as described above.

TLR3 = TLR3 (Homo sapiens, UniProt O15455); assay: HEK293 hTLR3 reporter cell assay (TLR3/ISRE LUCPorter, luminometer); type: cell-based; conditions: putative ligands at increasing concentrations, 24 h (biglycan 5, 10, 20 μg/ml)
Procedure: All cells were cultivated under standard conditions (37° C., supplied with 5% CO2). Passaging of the cells was performed at 70-90% confluency, and cells were only used until passage 7 as described previously^6. Polyinosinic: polycytidylic acid (Poly(I:C); Invivogen, San Diego, CA) was used to stimulate cells at a concentration of either 20 μg/mL or 5 μg/ml, depending on the assay. For blockade of TLR3, the commercially available dsRNA/TLR3 inhibitor ((R)-2-(3-Chloro-6-fluorobenzo [b] thiophene-2-carboxamido)-3-phenyl-propanoic acid) was used (Merck, Darmstadt, Germany) at a concentration of 1 μg/ml as described previously^1,7. LY294002 (Invivogen, San Diego, CA), a PI3K inhibitor, was used at a concentration of 10 μM. For blockade of IFNAR1, a specific blocking antibody (Invitrogen, Carlsbad, CA) was used at a concentration of 4 μg/ml. A stable HEK (human embryonic kidney) reporter cell line (TLR3/ISRE LUCPorter; Imgenex, USA) was purchased for luminometer assay experiments. Cells were cultivated according to the manufacturer's protocol in DMEM with 4.5 g/L glucose (Lonza, Switzerland), 10% FCS (Sigma, St. Louis, MO), penicillin/streptomycin, and 4 mM L-glutamine and […] puromycin (Gibco, USA) as selection agent. Reporter experiments were performed as described previously^8. […]

[1] = biological target: T1, recombinant human TLR3 ectodomain (huTLR3-ECD), residues 27-700, C-terminal 6x His tag (human, UniProt O15455 27-700); assay: size-exclusion chromatography of the mixed proteins, fractions immunoblotted
T1 construct: also called purified TLR3 ectodomain; hTLR3-ECD
Procedure: To obtain core protein of bovine biglycan, purchased biglycan (Sigma, St. Louis, MO) was incubated with Chondroitinase ABC (Merck, Darmstadt, Germany) at 37° C. for 2 h. Digestion of chondroitin sulfate was verified by electrophoresis and subsequent Coomassie-staining. To 185 μl of digested BGN (0.5 mg/ml) 15 μl of TLR3 (1 mg/ml) was added and incubated on ice for 30 min. The sample was subjected to size exclusion chromatography (Supedex200 increased 10/300 GL column) using 20 mM HEPES pH7.5 100 mM NaCl as running buffer. Fractions were collected and analyzed by Immunoblotting as described above.

calcification / production of calcific nodules (VICs): reduced calcification | calcification / production of calcific nodules (VICs; listed as dsRNA/TLR3 complex inhibitor): reduced | alkaline phosphatase (ALP) activity (VICs; supernatant): reduced
Molecule: O=C(N[C@H](Cc1ccccc1)C(=O)O)c1sc2cc(F)ccc2c1Cl [TLR3 inhibitor, (R)-2-(3-Chloro-6-fluorobenzo [b]thiophene-2-carboxamido)-3-phenyl-propanoic acid]
VitD3-induced calcification on co-incubation (zebrafish (Danio rerio)): reduced calcification; also recorded: abolished | VitD3-induced calcification on co-incubation (zebrafish (Danio rerio); listed as Tlr3 inhibitor): severely impaired calcification of the skeleton

Molecule: C=C1CC[C@H](O)C/C1=C/C=C1\CCC[C@]2(C)[C@@H]([C@H](C)CCCC(C)C)CC[C@@H]12 [VitD3, vitamin D3]
calcification of landmark bones (zebrafish (Danio rerio); VitD3 200 ng/mL alone): early and strong calcification of landmark bones

activation of TLR3 reporter cells (TLR3): did not activate TLR3
B1: rhBGN: BGN lacking chondroitin sulfate chains (protein)
chain (part 1 of 2): HHHHHH
chain (part 2 of 2): DEEASGADTSGVLDPDSVTPTYSAMCPFGCHCHLRVVQCSDLGLKSVPKEISPDTTLLDLQNNDISELRKDDFKGLQHLYALVLVNNKISKIHEKAFSPLRKLQKLYISKNHLVEIPPNLPSSLVELRIHDNRIRKVPKGVFSGLRNMNCIEMGGNPLENSGFEPGAFDGLKLNYLRISEAKLTGIPKDLPETLNELHLDHNKIQAIELEDLLRYSKLYRLGLGHNQIRMIENGSLSFLPTLRELHLDNNKLARVPSGLPDLKLLQVVYLHSNNITKVGVNDFCPMGFGVKRAYYNGISLFNNPVPYWEVQPATFRCVTDRLAIQFGNYKK
modifications: left off: small tags and cut ends
notes: BGN lacking chondroitin sulfate chains

binding result [1]: binds
B2: core protein of bovine biglycan (purchased biglycan, Sigma, digested with Chondroitinase ABC) (ligand, UniProt P21809 38-369, looked up)
chain: DEEASGAETTSGIPDLDSLPPTYSAMCPFGCHCHLRVVQCSDLGLKAVPKEISPDTTLLDLQNNDISELRKDDFKGLQHLYALVLVNNKISKIHEKAFSPLRKLQKLYISKNHLVEIPPNLPSSLVELRIHDNRIRKVPKGVFSGLRNMNCIEMGGNPLENSGFEPGAFDGLKLNYLRISEAKLTGIPKDLPETLNELHLDHNKIQAIELEDLLRYSKLYRLGLGHNQIRMIENGSLSFLPTLRELHLDNNKLSRVPAGLPDLKLLQVVYLHTNNITKVGVNDFCPVGFGVKRAYYNGISLFNNPVPYWEVQPATFRCVTDRLAIQFGNYKK
modifications: chondroitin sulfate removed by Chondroitinase ABC digestion
notes: also called digested BGN; BGN
